{
  "source": "patent US11339207B2",
  "about": "“Methods and compounds for the treatment or prevention of severe influenza” (priority 2016, dated 2022)",
  "key": {"[1]": {"test_system": "p38MAPK and HSP27 phosphorylation in A549 cells", "experiment": "Western blotting of p38MAPK and HSP27 phosphorylation in A549 cells after A549 viral soup", "assay_type": "cell-based, human", "conditions": "FIG. 6"}, "[2]": {"test_system": "HSP27 phosphorylation in Peripheral Blood Mononuclear Cells (PBMCs)", "experiment": "Western blotting of HSP27 phosphorylation in immune cells (PBMCs) after A549 viral soup", "assay_type": "cell-based, human", "conditions": "pre-incubation, FIG. 8"}, "[3]": {"test_system": "HSP27 phosphorylation in HUVEC cells", "experiment": "Western blotting of HSP27 phosphorylation in HUVEC cells after HBEC viral soup", "assay_type": "cell-based, human", "conditions": "pre-incubation"}, "[4]": {"test_system": "PBMCs plus granulocytes stimulated with A549 viral soup", "assay_type": "cell-based, human", "conditions": "immune cells, pre-incubation, FIG. 8"}, "[5]": {"test_system": "influenza virus", "conditions": "14% among controls, cited from earlier work"}, "[6]": {"test_system": "HUVECs stimulated with HBEC viral soup", "assay_type": "cell-based, human", "conditions": "for iMax IP10: maximal inhibition, HUVEC, HBEC viral soup, secreted IP10; for levels of IP10 at higher drug concentrations: endothelial cells (HUVECs) stimulated with 70% HBEC viral soup, FIG. 10"}},
  "note": "Where two headings read alike, the source gives them in different places.",
  "data": [
    {"compound": "Cc1cc(F)ccc1-c1nc(NC(CO)CO)nc2c1ccc(=O)n2-c1c(F)cccc1F", "note": "[Dilmapimod, 8-(2,6-difluorophenyl)-2-(1,3-dihydroxypropan-2-ylamino)-4-(4-fluoro-2-methylphenyl)pyrido[2,3-d]pyrimidin-7-one]", "values": [
      {"measurement": "induction of HSP27 phosphorylation by A549 viral soup", "setting": "[1]", "result": "dose dependently inhibit"},
      {"measurement": "induction of p38MAPK phosphorylation by A549 viral soup", "setting": "[1]", "result": "dose dependently inhibit"},
      {"measurement": "induction of HSP27 phosphorylation by A549 viral soup", "setting": "[2]", "result": "dose dependently inhibit"},
      {"measurement": "induction of HSP27 phosphorylation by HBEC viral soup", "setting": "[3]", "result": "dose dependently inhibit"},
      {"measurement": "A549 viral soup induced release of CXCL8", "setting": "[4]", "result": "significantly attenuate"},
      {"measurement": "A549 viral soup induced release of IL-1-β", "setting": "[4]", "result": "significantly attenuate"},
      {"measurement": "A549 viral soup induced release of IL-6", "setting": "[4]", "result": "significantly attenuate"},
      {"measurement": "A549 viral soup induced release of TNFα", "setting": "[4]", "result": "significantly attenuate"}
    ]},
    {"compound": "CC[C@H]1OC(=O)[C@H](C)[C@@H](O[C@H]2C[C@@](C)(OC)[C@@H](O)[C@H](C)O2)[C@H](C)[C@@H](O[C@@H]2O[C@H](C)C[C@H](N(C)C)[C@H]2O)[C@](C)(O)C[C@@H](C)C(=O)[C@H](C)[C@@H](O)[C@]1(C)O", "note": "[EM, erythromycin]", "values": [
      {"measurement": "survival rate of the virus-infected mice at Day 20 of infection", "setting": "[5]; 1.0 mg/kg/d", "result": 42, "unit": "%"},
      {"measurement": "survival rate of the virus-infected mice at Day 20 of infection", "setting": "[5]; 3.3 mg/kg/d", "result": 57, "unit": "%"}
    ]},
    {"compound": "CNC(=O)c1ccc(C)c(-n2c(C)cc(OCc3ccc(F)cc3F)c(Br)c2=O)c1", "note": "[PH797804, 3-[3-bromo-4-[(2,4-difluorophenyl)methoxy]-6-methyl-2-oxopyridin-1-yl]-N,4-dimethylbenzamide]", "values": [
      {"measurement": "iMax IP10", "setting": "[6]", "result": 88, "unit": "%"},
      {"measurement": "induction of HSP27 phosphorylation by A549 viral soup", "setting": "[1]", "result": "dose dependently inhibit"},
      {"measurement": "induction of p38MAPK phosphorylation by A549 viral soup", "setting": "[1]", "result": "dose dependently inhibit"},
      {"measurement": "induction of HSP27 phosphorylation by A549 viral soup", "setting": "[2]", "result": "dose dependently inhibit"},
      {"measurement": "induction of HSP27 phosphorylation by HBEC viral soup", "setting": "[3]", "result": "dose dependently inhibit"},
      {"measurement": "A549 viral soup induced release of CXCL8", "setting": "[4]", "result": "significantly attenuate"},
      {"measurement": "A549 viral soup induced release of IL-1-β", "setting": "[4]", "result": "significantly attenuate"},
      {"measurement": "A549 viral soup induced release of IL-6", "setting": "[4]", "result": "significantly attenuate"},
      {"measurement": "A549 viral soup induced release of TNFα", "setting": "[4]", "result": "significantly attenuate"}
    ]},
    {"compound": "CC[C@H](C)C(=O)O[C@H]1C[C@H](O)C=C2C=C[C@H](C)[C@H](CC[C@@H](O)C[C@@H](O)CC(=O)O)[C@H]21", "note": "[Pravastatin]", "values": [
      {"measurement": "iMax IP10", "setting": "[6]", "result": 35, "unit": "%"}
    ]},
    {"compound": "Nc1ccc2ncnc(NCCc3ccc(Oc4ccccc4)cc3)c2c1", "note": "[QNZ (EVP4593)]", "values": [
      {"measurement": "iMax IP10", "setting": "[6]", "result": 72, "unit": "%"}
    ]},
    {"compound": "COc1cc(F)c(F)c(Nc2ccc(I)cc2F)c1NS(=O)(=O)C1(C[C@H](O)CO)CC1", "note": "[Refametinib]", "values": [
      {"measurement": "levels of IP10 at higher drug concentrations", "setting": "[6]", "result": "appeared to increase levels of IP10"}
    ]},
    {"compound": "Selumetinib", "values": [
      {"measurement": "levels of IP10 at higher drug concentrations", "setting": "[6]", "result": "appeared to increase levels of IP10"}
    ]}
  ]
}
